Experiment [1] addresses T1, Recombinant human His-tagged Kat6a protein (amino acids 194-810) (Homo sapiens, UniProt Q92794).
T1 construct: Kat6a protein (amino acids 194-810); His
In words: Kat6a activity assay (TR-FRET, acetylation of Histone-H4-derived peptide). To be noted: 60 mins at 22° C., 220 nM H4 peptide, 600 nM Acetyl Coenzyme A, read-out: KAT6A - DPF/HAT domain IC50 [mol/l] (arithmetic mean). In kind it is biochemical. Background: In TR-FRET formats the signal depends on donor and acceptor labels being close together.

Experiment [2] has as its system ESR1 transcription in MVLN cells. In words: MVLN reporter assay: repression of ESR1 transcription (luciferase signal). In kind it is cell-based. The following applies: Homo sapiens, MVLN, 24 h, luciferase signal after 24 h, read-out: MVLN reporter assay, IC50 [M] (arithmetic mean). In a few lines:
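MVLN cells, expressing ER and stably carrying a vitellogenin A2 ERE-luciferase reporter, treated with compound in duplicate; luciferase read after 24 h with Steadylite plus. Cell density checked in parallel by Alamar Blue fluorescence (530/590 nm, 2 h) before the luciferase read.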

The next experiment deals with MDA-MB-436 cells. In words: MDA-MB-436 proliferation assay (negative control cell line). In kind it is cell-based. The following applies: Homo sapiens, 144 h, Alamar Blue, read-out: MDA-MB-436 proliferation assay, EC50 [M] (arithmetic mean). The source says: For compound characterization cell survival assays were routinely run in two cell lines. ZR-75-1 is a breast carcinoma cell line containing a focal KAT6A amplification and high KAT6A protein expression. Proliferation of this cell line is inhibited upon treatment with KAT6A inhibitors. As a negative control cell line MDA-MB-436 were used. These cells carry a […] deletion of the KAT6A gene, have a low KAT6A protein expression and are not growth inhibited upon treatment with KAT6A inhibitors.
For measurements cell lines were plated at the below indicated concentration per […] in 96-well plates in a humidified incubator at 37° C. and 5% CO2.
MDA-MB-436 (CLS, 300278; breast adenocarcinoma); 3000 cells per well; culture medium: DMEM/Ham's F12 (Biochrom #FG 4815) medium containing 2.5% FBS (Biochrom #S0615).
Each sample was prepared as triplicate and rim wells were excluded. Plates were incubated at 37° C. and 5% CO2 for 144 h. Cell viability was measured by adding 10 μL of Alamar Blue Reagent (Invitrogen #DAL 1100) and plates were incubated for 2 h at 37° C. and 5% CO2. Fluorescence was measured at 590 nm wavelength with a Tecan Spark or Victor X3 MTP-Reader (PerkinElmer).
Background: Resazurin is reduced to fluorescent resorufin, in cell work by metabolically active cells.

T1 sequence (Q92794 194-810): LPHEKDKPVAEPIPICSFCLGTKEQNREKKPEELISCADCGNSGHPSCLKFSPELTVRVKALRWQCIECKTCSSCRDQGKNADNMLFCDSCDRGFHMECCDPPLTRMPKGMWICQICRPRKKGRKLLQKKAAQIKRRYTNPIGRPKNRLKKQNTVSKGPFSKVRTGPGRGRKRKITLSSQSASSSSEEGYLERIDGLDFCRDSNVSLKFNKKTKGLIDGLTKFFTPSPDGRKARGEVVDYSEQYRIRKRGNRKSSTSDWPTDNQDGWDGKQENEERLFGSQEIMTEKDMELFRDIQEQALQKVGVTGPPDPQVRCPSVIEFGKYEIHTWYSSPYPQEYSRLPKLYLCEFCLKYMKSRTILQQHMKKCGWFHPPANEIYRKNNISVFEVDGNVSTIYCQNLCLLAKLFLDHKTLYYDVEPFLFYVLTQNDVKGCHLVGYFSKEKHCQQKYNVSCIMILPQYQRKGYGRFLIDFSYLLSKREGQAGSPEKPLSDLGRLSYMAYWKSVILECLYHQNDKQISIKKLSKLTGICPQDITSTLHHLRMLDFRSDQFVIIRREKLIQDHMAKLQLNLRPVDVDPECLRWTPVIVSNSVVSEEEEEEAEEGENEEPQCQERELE

On to `CC1CCN1c1cc(F)c2cc(C(=O)NS(=O)(=O)c3ccccc3)oc2c1` (racemic) [Example 220, N-(Benzenesulfonyl)-4-fluoro-6-(2-methylazetidin-1-yl)benzofuran-2-carboxamide (rac)], for which the IC50 was 982 nM in experiment [1] and 6.23e-06 M in experiment [2]. In the experiment with MDA-MB-436 cells, the EC50 was above 2e-05 M.

Regarding `Cc1ccc2cccc(S(=O)(=O)NC(=O)c3cc4c(F)cc(N5CCC5C)cc4o3)c2n1` (racemic) [Example 221, 4-Fluoro-6-(2-methylazetidin-1-yl)-N-[(2-methyl-8-quinolyl)sulfonyl]benzofuran-2-carboxamide (rac)], the IC50 worked out at 61.5 nM in experiment [1] and 3.82e-07 M in experiment [2]. In the experiment with MDA-MB-436 cells, the EC50 is above 2e-05 M.

As for `CC1CCN1c1cc(F)c2cc(C(=O)NS(=O)(=O)c3ccccc3-c3ccccc3)oc2c1` (racemic) [Example 222, 4-Fluoro-6-(2-methylazetidin-1-yl)-N-(2-phenylphenyl)sulfonyl-benzofuran-2-carboxamide (rac)], the results for the IC50 in experiment [1] and in experiment [2] were 129 nM and 1.44e-06 M, respectively. For the same compound, the EC50 with MDA-MB-436 cells is above 2e-05 M.

As to `CCOc1ccccc1S(=O)(=O)NC(=O)c1cc2c(F)cc(N3CCC3C)cc2o1` (racemic) [Example 223, N-(2-Ethoxyphenyl)sulfonyl-4-fluoro-6-(2-methylazetidin-1-yl)benzofuran-2-carboxamide (rac)], the IC50 in experiment [1] was 189 nM; in experiment [2] it was 7.22e-07 M. In addition, the EC50 with MDA-MB-436 cells was above 2e-05 M.

For `O=C(NS(=O)(=O)c1ccccc1-c1ccccc1)c1cc2c(F)cc(N3CCC3)cc2o1` [Example 19, 6-(Azetidin-1-yl)-N-([1,1′-biphenyl]-2-sulfonyl)-4-fluoro-1-benzofuran-2-carboxamide], the values for the IC50 in experiment [1] and in experiment [2] were 18.8 nM and 2.06e-07 M, respectively. In addition, in the experiment on MDA-MB-436 cells, the EC50 was above 2e-05 M.

On to `CCOc1ccccc1S(=O)(=O)NC(=O)c1cc2ccc(N3CC(c4ccccc4)C3)cc2o1` [Example 120, N-(2-ethoxybenzene-1-sulfonyl)-6-(3-phenylazetidin-1-yl)-1-benzofuran-2-carboxamide], for which the IC50 in experiment [1] was 6520 nM; in experiment [2] it was above 2e-05 M. The EC50 in the experiment on MDA-MB-436 cells is above 2e-05 M.

Consider `CCOc1ccccc1S(=O)(=O)NC(=O)c1cc2ccc(N3CC4(CC4)C3)cc2o1` [Example 122, 6-(5-Azaspiro[2.3]hexan-5-yl)-N-(2-ethoxybenzene-1-sulfonyl)-1-benzofuran-2-carboxamide], for which the figures for the IC50 in experiment [1] and in experiment [2] were above 20000 nM and above 2e-05 M, respectively. Besides, the EC50 in the experiment on MDA-MB-436 cells was above 2e-05 M.

Consider `CCOc1ccccc1S(=O)(=O)NC(=O)c1cc2ccc(N3CC(C)(C)C3)cc2o1` [Example 124, 6-(3,3-dimethylazetidin-1-yl)-N-(2-ethoxybenzene-1-sulfonyl)-1-benzofuran-2-carboxamide], for which the IC50 in experiment [1] was above 20000 nM; in experiment [2] it was above 2e-05 M. Further, in the experiment on MDA-MB-436 cells, the EC50 is above 2e-05 M.

`CCOc1ccc(Br)cc1S(=O)(=O)NC(=O)c1cc2c(F)cc(N3CCC3)cc2o1` [Example 135, 6-(Azetidin-1-yl)-N-(5-bromo-2-ethoxybenzene-1-sulfonyl)-4-fluoro-1-benzofuran-2-carboxamide]: the results for the IC50 in experiment [1] and in experiment [2] were 16.5 nM and 9.74e-08 M, respectively. Further, in the experiment on MDA-MB-436 cells, the EC50 was above 2e-05 M.

Take `CCc1cccc(OC)c1S(=O)(=O)NC(=O)c1cc2c(F)cc(N3CCC3)cc2o1` [Example 136, 6-(azetidin-1-yl)-N-(2-ethyl-6-methoxybenzene-1-sulfonyl)-4-fluoro-1-benzofuran-2-carboxamide]: the IC50 in experiment [1] stood at 45.6 nM; in experiment [2], 1.4e-07 M. The EC50 in the experiment with MDA-MB-436 cells was above 2e-05 M.

Consider `O=C(NS(=O)(=O)c1ccccc1OC(F)(F)F)c1cc2c(F)cc(N3CCC3)cc2o1` [Example 138, 6-(Azetidin-1-yl)-4-fluoro-N-[2-(trifluoromethoxy)benzene-1-sulfonyl]-1-benzofuran-2-carboxamide], for which the IC50 in experiment [1] came out at 69.4 nM; in experiment [2], 2.06e-07 M. Moreover, in the experiment with MDA-MB-436 cells, the EC50 is above 2e-05 M.

Regarding `O=C(NS(=O)(=O)c1cccc2c1OC(F)(F)C(F)(F)O2)c1cc2c(F)cc(N3CCC3)cc2o1` [Example 140, 6-(Azetidin-1-yl)-4-fluoro-N-(2,2,3,3-tetrafluoro-2,3-dihydro-1,4-benzodioxine-5-sulfonyl)-1-benzofuran-2-carboxamide], the IC50 stood at 27.6 nM in experiment [1] and 2.91e-07 M in experiment [2]. Further, the EC50 in the experiment on MDA-MB-436 cells was above 2e-05 M.

Consider `COc1ccc(N2CCN(C)CC2)cc1S(=O)(=O)NC(=O)c1cc2c(F)cc(N3CCC3)cc2o1` [Example 202, 6-(Azetidin-1-yl)-4-fluoro-N-[2-methoxy-5-(4-methylpiperazin-1-yl)benzene-1-sulfonyl]-1-benzofuran-2-carboxamide], for which the IC50 was 84.5 nM in experiment [1] and 1.04e-06 M in experiment [2].

Regarding `COc1ccc(C2=CCN(C)CC2)cc1S(=O)(=O)NC(=O)c1cc2c(F)cc(N3CCC3)cc2o1` [Example 203, 6-(Azetidin-1-yl)-4-fluoro-N-[2-methoxy-5-(1-methyl-1,2,3,6-tetrahydropyridin-4-yl)benzene-1-sulfonyl]-1-benzofuran-2-carboxamide], the IC50 in experiment [1] was 156 nM; in experiment [2], 3.78e-06 M.

As to `CCOc1c(F)cccc1S(=O)(=O)NC(=O)c1cc2c(F)cc(N3CCC3)cc2o1` [Example 206, 6-(azetidin-1-yl)-N-(2-ethoxy-3-fluoro-phenyl)sulfonyl-4-fluoro-benzofuran-2-carboxamide], the IC50 in experiment [1] amounted to 110 nM; in experiment [2], 4.44e-07 M.

Regarding `CCOc1cc(F)ccc1S(=O)(=O)NC(=O)c1cc2c(F)cc(N3CCC3)cc2o1` [Example 208, 6-(Azetidin-1-yl)-N-(2-ethoxy-4-fluoro-phenyl)sulfonyl-4-fluoro-benzofuran-2-carboxamide], the IC50 amounted to 45.4 nM in experiment [1] and 7.78e-08 M in experiment [2].

Turning to `CCOc1ccc(F)cc1S(=O)(=O)NC(=O)c1cc2c(F)cc(N3CCC3)cc2o1` [Example 210, 6-(Azetidin-1-yl)-N-(2-ethoxy-5-fluoro-phenyl)sulfonyl-4-fluoro-benzofuran-2-carboxamide], the values for the IC50 in experiment [1] and in experiment [2] were 52.6 nM and 1.13e-07 M, respectively.

In the case of `CCOc1ccc(Oc2ccccc2)cc1S(=O)(=O)NC(=O)c1cc2c(F)cc(N3CCC3)cc2o1` [Example 211, 6-(Azetidin-1-yl)-N-(2-ethoxy-5-phenoxy-phenyl)sulfonyl-4-fluoro-benzofuran-2-carboxamide], the IC50 turned out to be 7.58 nM in experiment [1] and 2.44e-07 M in experiment [2].

With `CCOc1ccc(OC(F)(F)F)cc1S(=O)(=O)NC(=O)c1cc2c(F)cc(N3CCC3)cc2o1` [Example 212, 6-(Azetidin-1-yl)-N-[2-ethoxy-5-(trifluoromethoxy)phenyl]sulfonyl-4-fluoro-benzofuran-2-carboxamide], the IC50 in experiment [1] turned out to be 36.4 nM; in experiment [2], 1.59e-07 M.

For the compound `CC1(C)CCN1c1cc(F)c2cc(C(=O)NS(=O)(=O)c3ccccc3)oc2c1` [Example 216, N-(benzenesulfonyl)-6-(2,2-dimethylazetidin-1-yl)-4-fluoro-benzofuran-2-carboxamide], the results for the IC50 in experiment [1] and in experiment [2] were 9560 nM and above 2e-05 M, respectively. For the same compound, in the experiment on MDA-MB-436 cells, the EC50 is above 2e-05 M.

As to `CC1(C)CCN1c1cc(F)c2cc(C(=O)NS(=O)(=O)c3ccccc3-c3ccccc3)oc2c1` [Example 217, 6-(2,2-Dimethylazetidin-1-yl)-4-fluoro-N-(2-phenylphenyl)sulfonyl-benzofuran-2-carboxamide], the IC50 in experiment [2] stood at 1.05e-05 M. Also, the EC50 in the experiment with MDA-MB-436 cells is above 2e-05 M.

`Cc1ccc2cccc(S(=O)(=O)NC(=O)c3cc4c(F)cc(N5CCC5(C)C)cc4o3)c2n1` [Example 218, 6-(2,2-Dimethylazetidin-1-yl)-4-fluoro-N-[(2-methyl-8-quinolyl)sulfonyl]benzofuran-2-carboxamide]: the IC50 in experiment [1] was 271 nM; in experiment [2], 1.91e-06 M. Moreover, the EC50 in the experiment on MDA-MB-436 cells is above 2e-05 M.

Regarding `CCOc1ccccc1S(=O)(=O)NC(=O)c1cc2c(F)cc(N3CCC3(C)C)cc2o1` [Example 219, 6-(2,2-Dimethylazetidin-1-yl)-N-(2-ethoxyphenyl)sulfonyl-4-fluoro-benzofuran-2-carboxamide], the figures for the IC50 in experiment [1] and in experiment [2] were 1850 nM and 3.86e-06 M, respectively. Also, the EC50 in the experiment with MDA-MB-436 cells was above 2e-05 M.

For `CC(C)c1ccc(OC2CCC2)c(S(=O)(=O)NC(=O)c2cc3c(F)cc(N4CCC4)cc3o2)c1` [Example 230, 6-(Azetidin-1-yl)-N-[(2-cyclobutoxy-5-isopropylphenyl)sulfonyl]-4-fluorobenzofuran-2-carboxamide], the IC50 in experiment [1] is 7.71 nM; in experiment [2] it was 8.72e-08 M.

Source of the values: patent US20240279207A1, “SUBSTITUTED ACYL SULFONAMIDES FOR TREATING CANCER” (The Broad Institute, Inc., priority 2020, published 2024).
